Reference: patent publication US6914045B2, “Glycopeptide antibiotics” (Wyeth Holdings Corporation, priority 2001, dated 2005)
≈ marks a conversion by molar mass, not a printed value.

Tests used:
Assay in all cases: in vitro antibacterial evaluation, MIC by broth dilution
Type in all cases: cell-based
Enterococcus sp. = conditions: broth dilution, 18 hours at 35° C.
In short: (§1)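 Following National Committee for Clinical Laboratory Standards recommendations (M7-A2), susceptibility was measured by dilution in Muller-Hinton II […]. Bacteria were seeded at 5×10^5 CFU/mL against compound concentrations from 64 down to 0.06 μg/mL.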

Escherichia coli = system: Escherichia coli
In short: as §1

Staphylococcus sp. = conditions: broth dilution, 18 hours at 35° C.; for MIC Staphylococcus aureus (GC 1131): strain GC 1131
In short: as §1

Streptococcus sp. = conditions: broth dilution, 18 hours at 35° C.
In short: as §1

COc1cccc(C2OC3C(OC4C(CO)OC(Oc5ccc(CC6NC(=O)C(C(C)c7ccccc7)NC(=O)CNC(=O)C(CO)NC(=O)C(C(O)C7CNC(=N)N7C7OC(CO)C(O)C(O)C7O)NC(=O)C(C(O)C7CNC(=N)N7)NC6=O)cc5)C(O)C4O)OC(CO)C(O)C3O2)c1 (single isomer, unassigned) [Example 137b, Cyclo[glycyl-β-methylphenylalanyl-O-[4-O-[2,3-O-(3-methoxybenzylidene)hexopyranosyl]-hexopyranosyl]tyrosyl-3-(2-iminoimidazolidin-4-yl)seryl-3-(3-hexopyranosyl-2-iminoimidazolidin-4-yl)serylseryl]]
MIC Enterococcus avium (GC 4558) (Enterococcus sp.; Enterococcus avium (GC 4558)): 32 µg/mL (≈ 22.6 µM)
MIC Enterococcus faecalis (ATCC 29212) (Enterococcus sp.; Enterococcus faecalis (ATCC 29212)): 32 µg/mL (≈ 22.6 µM)
MIC Enterococcus faecalis (GC 2242) (Enterococcus sp.; Enterococcus faecalis (GC 2242)): 32 µg/mL (≈ 22.6 µM)
MIC Enterococcus faecalis (GC 2691) (Enterococcus sp.; Enterococcus faecalis (GC 2691)): 32 µg/mL (≈ 22.6 µM)
MIC Enterococcus faecalis (GC 3059) (Enterococcus sp.; Enterococcus faecalis (GC 3059)): 64 µg/mL (≈ 45.3 µM)
MIC Enterococcus faecalis (GC 4552) (Enterococcus sp.; Enterococcus faecalis (GC 4552)): 32 µg/mL (≈ 22.6 µM)
MIC Enterococcus faecalis (GC 4553) (Enterococcus sp.; Enterococcus faecalis (GC 4553)): 32 µg/mL (≈ 22.6 µM)
MIC Enterococcus faecalis (GC 4554) (Enterococcus sp.; Enterococcus faecalis (GC 4554)): 64 µg/mL (≈ 45.3 µM)
MIC Enterococcus faecalis (GC 6189) (Enterococcus sp.; Enterococcus faecalis (GC 6189)): 32 µg/mL (≈ 22.6 µM)
MIC Enterococcus faecium (GC 2243) (Enterococcus sp.; Enterococcus faecium (GC 2243)): 64 µg/mL (≈ 45.3 µM)
MIC Enterococcus faecium (GC 4556) (Enterococcus sp.; Enterococcus faecium (GC 4556)): 32 µg/mL (≈ 22.6 µM)
MIC Enterococcus faecium (GC 4557) (Enterococcus sp.; Enterococcus faecium (GC 4557)): 8 µg/mL (≈ 5.66 µM)
MIC Enterococcus faecalis (ATCC 29212) (Enterococcus sp.; strain ATCC 29212): 32 µg/mL (≈ 22.6 µM)
MIC Enterococcus faecalis (GC 2242) (Enterococcus sp.; strain GC 2242): 32 µg/mL (≈ 22.6 µM)
MIC Enterococcus faecium (GC 2243) (Enterococcus sp.; strain GC 2243): 64 µg/mL (≈ 45.3 µM)
MIC Enterococcus faecalis (GC 2691) (Enterococcus sp.; strain GC 2691): 32 µg/mL (≈ 22.6 µM)
MIC Enterococcus faecalis (GC 3059) (Enterococcus sp.; strain GC 3059): 64 µg/mL (≈ 45.3 µM)
MIC Enterococcus faecalis (GC 4552) (Enterococcus sp.; strain GC 4552): 32 µg/mL (≈ 22.6 µM)
MIC Enterococcus faecalis (GC 4553) (Enterococcus sp.; strain GC 4553): 32 µg/mL (≈ 22.6 µM)
MIC Enterococcus faecalis (GC 4554) (Enterococcus sp.; strain GC 4554): 64 µg/mL (≈ 45.3 µM)
MIC Enterococcus faecium (GC 4556) (Enterococcus sp.; strain GC 4556): 32 µg/mL (≈ 22.6 µM)
MIC Enterococcus faecium (GC 4557) (Enterococcus sp.; strain GC 4557): 8 µg/mL (≈ 5.66 µM)
MIC Enterococcus avium (GC 4558) (Enterococcus sp.; strain GC 4558): 32 µg/mL (≈ 22.6 µM)
MIC Enterococcus faecalis (GC 6189) (Enterococcus sp.; strain GC 6189): 32 µg/mL (≈ 22.6 µM)
MIC Escherichia coli (ATCC 25922) (Escherichia coli; strain ATCC 25922, 18 hours at 35° C.): >64 µg/mL
MIC Escherichia coli (GC 4559) (Escherichia coli; strain GC 4559, 18 hours at 35° C.): >64 µg/mL
MIC Escherichia coli (GC 4560) (Escherichia coli; strain GC 4560, 18 hours at 35° C.): 4 µg/mL (≈ 2.83 µM)
MIC Staphylococcus aureus (GC 1131) (Staphylococcus sp.; inoculum 5×10^5 CFU/mL): 16 µg/mL (≈ 11.3 µM)
MIC Staphylococcus aureus (ATCC 29213) (Staphylococcus sp.; strain ATCC 29213): 16 µg/mL (≈ 11.3 µM)
MIC Staphylococcus aureus (GC 1131) (Staphylococcus sp.): 16 µg/mL (≈ 11.3 µM)
MIC Staphylococcus aureus (GC 3051) (Staphylococcus sp.; strain GC 3051): 16 µg/mL (≈ 11.3 µM)
MIC Staphylococcus aureus (GC 3053) (Staphylococcus sp.; strain GC 3053): 16 µg/mL (≈ 11.3 µM)
MIC Staphylococcus aureus (GC 4541) (Staphylococcus sp.; strain GC 4541): 8 µg/mL (≈ 5.66 µM)
MIC Staphylococcus aureus (GC 4542) (Staphylococcus sp.; strain GC 4542): 16 µg/mL (≈ 11.3 µM)
MIC Staphylococcus aureus-SMITH (GC 4543) (Staphylococcus sp.; strain GC 4543): 8 µg/mL (≈ 5.66 µM)
MIC Staphylococcus aureus (GC 4544) (Staphylococcus sp.; strain GC 4544): 16 µg/mL (≈ 11.3 µM)
MIC Staphylococcus aureus (GC 4545) (Staphylococcus sp.; strain GC 4545): 16 µg/mL (≈ 11.3 µM)
MIC Staphylococcus haemolyticus (GC 4546) (Staphylococcus sp.; strain GC 4546): 8 µg/mL (≈ 5.66 µM)
MIC Coagulase Negative Staphylococcus (GC 4547) (Staphylococcus sp.; strain GC 4547): 8 µg/mL (≈ 5.66 µM)
MIC Coagulase Negative Staphylococcus (GC 4548) (Staphylococcus sp.; strain GC 4548): 4 µg/mL (≈ 2.83 µM)
MIC Coagulase Negative Staphylococcus (GC 4549) (Staphylococcus sp.; strain GC 4549): 8 µg/mL (≈ 5.66 µM)
MIC Coagulase Negative Staphylococcus (GC 4551) (Staphylococcus sp.; strain GC 4551): 8 µg/mL (≈ 5.66 µM)
MIC Coagulase Negative Staphylococcus (GC 6257) (Staphylococcus sp.; strain GC 6257): 4 µg/mL (≈ 2.83 µM)
MIC Staphylococcus aureus-SMITH (GC 4543) (Staphylococcus sp.; strain SMITH GC 4543): 8 µg/mL (≈ 5.66 µM)
MIC Streptococcus agalactiae (GC 4564) (Streptococcus sp.; Streptococcus agalactiae (GC 4564)): 4 µg/mL (≈ 2.83 µM)
MIC Streptococcus pneumoniae (ATCC 6301) (Streptococcus sp.; Streptococcus pneumoniae (ATCC 6301)): 2 µg/mL (≈ 1.42 µM)
MIC Streptococcus pneumoniae (GC 1894) (Streptococcus sp.; Streptococcus pneumoniae (GC 1894)): 1 µg/mL (≈ 0.708 µM)
MIC Streptococcus pneumoniae (GC 4565) (Streptococcus sp.; Streptococcus pneumoniae (GC 4565)): 2 µg/mL (≈ 1.42 µM)
MIC Streptococcus pyogenes (GC 4563) (Streptococcus sp.; Streptococcus pyogenes (GC 4563)): 4 µg/mL (≈ 2.83 µM)
MIC Streptococcus pneumoniae (ATCC 6301) (Streptococcus sp.; strain ATCC 6301): 2 µg/mL (≈ 1.42 µM)
MIC Streptococcus pneumoniae (GC 1894) (Streptococcus sp.; strain GC 1894): 1 µg/mL (≈ 0.708 µM)
MIC Streptococcus pyogenes (GC 4563) (Streptococcus sp.; strain GC 4563): 4 µg/mL (≈ 2.83 µM)
MIC Streptococcus agalactiae (GC 4564) (Streptococcus sp.; strain GC 4564): 4 µg/mL (≈ 2.83 µM)
MIC Streptococcus pneumoniae (GC 4565) (Streptococcus sp.; strain GC 4565): 2 µg/mL (≈ 1.42 µM)
